Results: ChEMBL document CHEMBL1133531, “Carbonic anhydrase inhibitors: perfluoroalkyl/aryl-substituted derivatives of aromatic/heterocyclic sulfonamides as topical intraocular pressure-lowering agents with prolonged duration of action” (J Med Chem, 2000)
Values after ≈ are worked out from the molar mass of the structure shown.

What was measured:
Oryctolagus cuniculus [1] = species on record: Oryctolagus cuniculus
Description: In vitro transcorneal accession rate in rabbit corneal intact epithelium

Oryctolagus cuniculus [2] = species on record: Oryctolagus cuniculus; remark: listed apart in the source
Description: In vitro transcorneal accession rate in rabbit corneal denuded epithelium

Oryctolagus cuniculus [3] = test: Tested for in vivo IOP-lowering of glaucomatous rabbits after topical administration at the specified interval( 90 min) at pH 6.5; assay type: functional
Oryctolagus cuniculus [4] = species on record: Oryctolagus cuniculus; remark: listed apart in the source
Description: Tested for in vivo IOP-lowering of normotensive albino rabbits after topical administration at the specified interval (60 min) at pH 6.5

Oryctolagus cuniculus [5] = species on record: Oryctolagus cuniculus; remark: listed apart in the source
Description: Tested for in vivo IOP-lowering of normotensive albino rabbits after topical administration at the specified interval (90 min) at pH 6.5

[6] = Solubility in pH 7.4 Buffer, at 25 Degree C; assay type: physicochemical
Oryctolagus cuniculus [7] = species on record: Oryctolagus cuniculus; remark: listed apart in the source
Description: Tested for ex vivo distribution in cornea after topical administration in albino rabbits (Ocular tissue concentration after 1 hr)

Oryctolagus cuniculus [8] = species on record: Oryctolagus cuniculus; remark: listed apart in the source
Description: Tested for ex vivo distribution in aqueous humor after topical administration in albino rabbits (Ocular tissue concentration after 2 hr)

Oryctolagus cuniculus [9] = test: Tested for in vivo IOP-lowering of glaucomatous rabbits after topical administration at the specified interval( 60 min) at pH 6.5; assay type: functional
Carbonic anhydrase 1 [10] = molecular target: T1, Carbonic anhydrase 1 (Homo sapiens, UniProt P00915)
Description: Inhibition of human recombinant carbonic anhydrase I (CA1)

Oryctolagus cuniculus [11] = species on record: Oryctolagus cuniculus; remark: listed apart in the source
Description: Tested for ex vivo distribution in ciliary process after topical administration in albino rabbits (Ocular tissue concentration after 1 hr)

Carbonic anhydrase 4 = molecular target: T2, Carbonic anhydrase 4 (Bos taurus, UniProt Q95323)
T2 sequence (Q95323 whole entry): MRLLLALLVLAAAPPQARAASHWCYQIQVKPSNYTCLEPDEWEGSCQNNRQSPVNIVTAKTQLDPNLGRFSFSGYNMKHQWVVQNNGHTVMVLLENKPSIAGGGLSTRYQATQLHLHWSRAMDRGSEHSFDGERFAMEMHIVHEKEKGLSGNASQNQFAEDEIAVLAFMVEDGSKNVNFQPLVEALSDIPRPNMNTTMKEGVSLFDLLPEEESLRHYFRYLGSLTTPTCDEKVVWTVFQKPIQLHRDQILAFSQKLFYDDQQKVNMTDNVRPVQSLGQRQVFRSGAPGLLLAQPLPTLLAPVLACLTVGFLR
Description: Inhibition of bovine carbonic anhydrase IV (CA4) from bovine lung microsomes

Oryctolagus cuniculus [12] = test: Tested for in vivo IOP-lowering of glaucomatous rabbits after topical administration at the specified interval( 30 min) at pH 6.5; assay type: functional
Oryctolagus cuniculus [13] = species on record: Oryctolagus cuniculus; remark: listed apart in the source
Description: Tested for ex vivo distribution in ciliary process after topical administration in albino rabbits (Ocular tissue concentration after 2 hr)

Oryctolagus cuniculus [14] = species on record: Oryctolagus cuniculus; remark: listed apart in the source
Description: Tested for ex vivo distribution in cornea after topical administration in albino rabbits (Ocular tissue concentration after 2 hr)

[15] = octanol/water
Description: Partition coefficient (logD) (chloroform/buffer)

Oryctolagus cuniculus [16] = species on record: Oryctolagus cuniculus; remark: listed apart in the source
Description: Tested for in vivo IOP-lowering of normotensive albino rabbits after topical administration at the specified interval (30 min) at pH 6.5

Oryctolagus cuniculus [17] = species on record: Oryctolagus cuniculus; remark: listed apart in the source
Description: Tested for ex vivo distribution in aqueous humor after topical administration in albino rabbits (Ocular tissue concentration after 1 hr)

Carbonic anhydrase 1 [18] = molecular target: T1, Carbonic anhydrase 1; test: 99 Tested for inhibition of human (cloned) isozyme Carbonic anhydrase I
Carbonic anhydrase 1 [19] = molecular target: T1, Carbonic anhydrase 1; test: Tested for inhibition of human (cloned) isoenzyme carbonic anhydrase 1.
Carbonic anhydrase 1 [20] = molecular target: T1, Carbonic anhydrase 1; test: Tested for inhibition of human (cloned) isozyme Carbonic anhydrase I

T1 sequence (P00915 whole entry): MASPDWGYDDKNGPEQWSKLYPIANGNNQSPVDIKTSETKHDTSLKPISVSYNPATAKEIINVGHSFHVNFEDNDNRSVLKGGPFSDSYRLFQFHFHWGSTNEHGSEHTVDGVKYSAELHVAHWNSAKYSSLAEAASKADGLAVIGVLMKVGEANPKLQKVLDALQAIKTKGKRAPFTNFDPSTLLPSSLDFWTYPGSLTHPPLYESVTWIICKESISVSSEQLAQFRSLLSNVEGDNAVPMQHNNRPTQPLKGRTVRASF

Row | Compound | solubility [6] | Ki (Carbonic anhydrase 1 [10]) | Ki (Carbonic anhydrase 4) | logD [15] | Ki (Carbonic anhydrase 1 [20]) | Kin (Oryctolagus cuniculus [1]) | Kin (Oryctolagus cuniculus [2]) | Drug concentration (Oryctolagus cuniculus [7]) | Drug concentration (Oryctolagus cuniculus [8]) | Drug concentration (Oryctolagus cuniculus [11]) | Drug concentration (Oryctolagus cuniculus [13]) | Drug concentration (Oryctolagus cuniculus [14]) | Drug concentration (Oryctolagus cuniculus [17]) | further results
1 | Cn1nc(S(N)(=O)=O)sc1=NS(=O)(=O)c1c(F)c(F)c(F)c(F)c1F | 66 mM (≈ 28 mg/mL) | 250 nM | 9 nM | 2.347 | – | 4900 h⁻¹ | 8800 h⁻¹ | 150 µM | 39 µM | 38 µM | 7.1 µM | 36 µM | 296 µM | Delta IOP (Oryctolagus cuniculus [3]): 16.9 mmHg; Delta IOP (Oryctolagus cuniculus [4]): 11.3 mmHg; Delta IOP (Oryctolagus cuniculus [5]): 9.1 mmHg; Delta IOP (Oryctolagus cuniculus [9]): 14.2 mmHg; Delta IOP (Oryctolagus cuniculus [12]): 7.1 mmHg; Delta IOP (Oryctolagus cuniculus [16]): 4.7 mmHg
2 | NS(=O)(=O)c1ccccc1NC(=O)c1c(F)c(F)c(F)c(F)c1F | – | – | 810 nM | – | 1560 nM | – | – | – | – | – | – | – | – | –
3 | NS(=O)(=O)c1nnc(NS(=O)(=O)c2c(F)c(F)c(F)c(F)c2F)s1 | 62 mM (≈ 25.4 mg/mL) | 210 nM | 6 nM | 2.113 | – | 4500 h⁻¹ | 8700 h⁻¹ | 176 µM | 42 µM | 45 µM | 12.5 µM | 69 µM | 324 µM | –

More lines, main results first:

Row | solubility [6] | Ki (Carbonic anhydrase 1 [10]) | Ki (Carbonic anhydrase 4) | logD [15] | Ki (Carbonic anhydrase 1 [20]) | Compound | Kin (Oryctolagus cuniculus [1]) | Kin (Oryctolagus cuniculus [2]) | Drug concentration (Oryctolagus cuniculus [7]) | Drug concentration (Oryctolagus cuniculus [8]) | Drug concentration (Oryctolagus cuniculus [11]) | Drug concentration (Oryctolagus cuniculus [13]) | Drug concentration (Oryctolagus cuniculus [14]) | Drug concentration (Oryctolagus cuniculus [17]) | further results
4 | – | – | 600 nM | – | – | NS(=O)(=O)c1ccc(NC(=O)c2c(F)c(F)c(F)c(F)c2F)cc1 | – | – | – | – | – | – | – | – | Ki (Carbonic anhydrase 1 [18]): 950 nM
5 | – | – | 860 nM | – | – | NS(=O)(=O)c1ccc(NNS(=O)(=O)C(F)(F)C(F)(F)C(F)(F)C(F)(F)C(F)(F)C(F)(F)C(F)(F)C(F)(F)F)cc1 | – | – | – | – | – | – | – | – | Ki (Carbonic anhydrase 1 [19]): 1680 nM
6 | – | – | 650 nM | – | 1400 nM | NS(=O)(=O)c1cccc(NC(=O)c2c(F)c(F)c(F)c(F)c2F)c1 | – | – | – | – | – | – | – | – | –
